Laboratory results reported in ChEMBL document CHEMBL1146463, “A pair of new C-21 steroidal glycoside epimers from the roots of Cynanchum paniculatum” (2004).
Converted amounts (≈) assume the structure as drawn.

Each compound was assayed on Staphylococcus aureus (assay: Antibacterial activity against methicillin-resistant Staphylococcus aureus after 20 hrs).
Assay type: functional

| Compound | MIC [mg/L] |
| --- | --- |
| CC(=O)OCC1=C(C(=O)O)N2C(=O)[C@@H](NC(=O)CSc3ccncc3)[C@H]2SC1 [CEPHAPIRIN] | 10.5 (≈ 24.8 µM) |
| CO[C@@H]1C[C@H](O[C@H]2CC[C@@]3(C)C(=CC[C@H]4C(=O)O[C@H]5CO[C@]6(C)O[C@@H](O)/C(=C/C[C@@H]43)[C@H]56)C2)O[C@H](C)[C@H]1O [PANICULATUMOSIDE B] | 149 (≈ 285 µM) |
| CO[C@@H]1C[C@H](O[C@H]2CC[C@@]3(C)C(=CC[C@H]4C(=O)O[C@@H]5CO[C@]6(C)O[C@H](O)/C(=C/C[C@@H]43)[C@H]56)C2)O[C@H](C)[C@H]1O [PANICULATUMOSIDE A] | 180 (≈ 345 µM) |
